From patent US9061030B2, “sGC stimulators” (IRONWOOD PHARMACEUTICALS, INC., priority 2010, dated 2015)

Test system: Thoracic aortic rings
Experiment: Thoracic aortic rings assay
Parameters: species or system rat
Details: relaxation of rat thoracic aortic rings contracted with 100 ng/mL phenylephrine; read-out: Aortic Ring EC50
Method: Thoracic aortic rings were dissected from anesthetized (isoflurane) male Sprague-Dawley rats weighing 275-299 g. Tissues were immediately transferred to ice-cold Krebs-Henseleit solution, which had been aerated with 95% O2 and 5% CO2 for 30 minutes. Following removal of connective tissue, aortic sections were cut into 4 rings (˜2 mm each) and suspended on 2 L-shaped hooks, with one hook fixed at the bottom of the tissue bath (Schuler Organ Bath, Harvard Apparatus) and the other connected to a force transducer (F30 Force Transducer, Harvard Apparatus). Baths contained Krebs Henseleit solution (10 mL) heated to 37° C. and aerated with 95% O2 and 5% CO2. Rings were brought to an initial tension of 0.3-0.5 g and gradually raised to a resting tension of 1.0 g over 60 minutes. Rings were rinsed with Krebs Henseleit solution (heated to 37° C. and aerated with 95% 02 and 5% CO2) at 15 minute intervals until a stable baseline was obtained. Rings were considered to be stable after a resting tension of 1.0 g was maintained (for approximately 10 minutes) without need for adjustment. Rings were then contracted with 100 ng/mL phenylephrine by adding 100 μL of a 10 μg/mL phenylephrine stock solution. Tissues achieving a stable contraction were then treated in a cumulative, dose dependent manner with test compounds prepared in dimethylsulfoxide (DMSO). In some cases, tissues were rinsed three times over a 5 minute period with Krebs-Heinseleit's solution (heated to 37° C. and aerated with 95% 02 and 5% CO2), allowed to stabilize at baseline, and then used for characterization of other test articles or DMSO effects. All data were collected using the HSE-ACAD software provided by Harvard Apparatus. Percent relaxation effects were calculated in Microsoft Excel using the recorded tension value of 100 ng/mL phenylephrine treatment as 0% inhibition and, after washing the tissue with buffer, the original resting tension of tissue is used as 100% inhibition. EC50 values were calculated from concentration-response curves generated with GraphPad Prism Software.
The biological data for some of the compounds of Formula IA and Formula IB, in comparison with the prior art compound, BAY 41-2272, as the reference compound, determined by the thoracic aorta ring assay are presented in Table 6 below.

EC50: < 1000 nM
SMILES: Nc1nc(-c2nn(Cc3ccccc3F)c3ncccc23)ncc1C1CC1 [BAY-41-2272, reference compound]
